# The supplement of paper PMC6470124
# Assays:
# [1] = absolute recovery over mixed-bed multilayer solid-phase extraction; higher = better recovery; conditions: enrichment method: SPE
# Outline: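 Elution from a three-layer mixed-bed cartridge used basic followed by acidic ethyl acetate/methanol, after loading either 1000 mL of unfiltered nanopure water or 100–250 mL of wastewater that had been set to pH 6.5 and glass-fibre filtered. Standards went in before or after extraction, or were left out, at 200 ng/L (water) or 1000 ng/L (wastewater), with class exceptions. Internal standards were added afterwards, and measurement was by liquid chromatography with high-resolution tandem mass spectrometry in both ionisation modes. For absolute recovery, background-corrected response ratios of pre-spiked samples were compared with those of post-spiked samples and averaged over at least two replicates.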
# [2] = absolute recovery over vacuum-assisted evaporative concentration; higher = better recovery; conditions: enrichment method: VEC
# Outline: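 After spiking with standards before concentration, after concentration or not at all, at 1000 ng/L for wastewater or 200 ng/L for nanopure and surface water with class- and compound-specific adjustments, samples of 6 mL influent, 15 mL effluent and 60 mL surface or nanopure water were evaporated at 55 °C and 20 mbar to about 0.3 mL. They were brought to 0.4 mL, centrifuged, given internal standards and analysed by LC-HRMS/MS. Absolute recovery, (response ratio pre − unspiked)/(post − unspiked) × 100, used averages of ≥ 2 replicates.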
# [3] = LC retention time (Atlantis T3, 5-95% MeOH gradient, 0.1% formic acid); higher = more retained / less polar
# Outline: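 Retention times refer to reference standards measured by liquid chromatography with high-resolution tandem mass spectrometry. Separation was on an Atlantis T3 C18 column (3 × 150 mm, 3 μm) at 0.3 mL/min with a 5 to 95% methanol gradient over 17.5 min, both solvents carrying 0.1% formic acid. Positive and negative electrospray were run separately on a QExactive Plus, and TraceFinder peak integration (5 ppm tolerance, at least three points per peak) was reviewed by hand.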
Compound,absolute recovery ([1]; nanopure water) [%],absolute recovery ([1]; surface water) [%],absolute recovery ([1]; wastewater effluent) [%],absolute recovery ([1]; wastewater influent) [%],absolute recovery ([2]; wastewater effluent) [%],absolute recovery ([2]; wastewater influent) [%],LC retention time [3] [min]
C=C1CC2C(CCC3(C)C(=O)CCC23)C2(C)C=CC(=O)C=C12 (centres undefined) [Exemestan],91.6,96,93.2,98.3,100,71.7,19.6
CC(C)Nc1nc(N)nc(O)n1 [Atrazin-desethyl-2-hydroxy],76.8,74.2,71.2,92.3,107,93.7,7.67
COCC(=O)N(c1c(C)cccc1C)C(C)C(=O)OC (centres undefined) [Metalaxyl],96.6,95.8,93.6,94.7,103,97.8,18.4
O=C(NCC(O)CO)c1c(I)c(C(=O)NCC(O)CO)c(I)c(N(CCO)C(=O)CO)c1I (centres undefined) [Ioversol],55.7,,57.2,36,83.7,86.5,7.88
CCc1cccc(C)c1N(C(=O)CCl)C(C)COC (centres undefined) [Metolachlor],,93,90.6,92.5,93.1,91.7,20.6
Cc1nc2n(c(=O)c1CC[NH+]1CCC(c3noc4cc(F)ccc34)CC1)CCCC2 [Risperidone],90.1,98.4,93.3,82,98.7,102,13.3
COc1ccc2c(c1)C13CCCCC1C(C2)[NH+](C)CC3 (centres undefined) [Dextromethorphan],86.8,94.5,93.4,77.6,102,107,14.5
COCc1cnc(C2=NC(C)(C(C)C)C(=O)N2)c(C(=O)[O-])c1 (centres undefined) [Imazamox],92.3,93.4,90.7,90.4,104,94.7,15.1
CC(=O)N(CC(O)CO)c1c(I)c(C(=O)NCC(O)CO)c(I)c(C(=O)NCC(O)CO)c1I (centres undefined) [Iohexol],68.2,73.1,66.4,56.8,102,98.3,8.81
Nc1cn[nH+]c([O-])c1Cl [Chloridazon-desphenyl],58.5,67.9,70.2,72.3,102,98.3,7.56
N#CC1CCCN1C(=O)C[NH2+]C12CC3CC(CC(O)(C3)C1)C2 (centres undefined) [Vildagliptin],92.8,94.1,92.8,93.2,105,102,8.73
N#Cc1c[nH]cc1-c1cccc2c1OC(F)(F)O2 [Fludioxonil],101,108,105,77,116,108,19.5
COC(=O)C(C)N(C(=O)Cc1ccccc1)c1c(C)cccc1C (centres undefined) [Benalaxyl],95.9,93,96,105,97.6,94.9,21.1
Cc1cn(C2CC(N=[N+]=[N-])C(CO)O2)c(=O)[nH]c1=O (centres undefined) [Zidovudine],98.2,93.4,93.9,97.1,103,104,13.1
CON=C(C(=O)OC)c1ccccc1COc1ccccc1C [Kresoxim-methyl],103,110,103,93.5,98.9,89.9,20.7
CCNc1nc(O)nc(NCC)n1 [Simazin-2-hydroxy],84.5,78.7,88.3,82.7,105,107,10.1
COc1cccc(C2(O)CCCCC2C[N+](C)(C)[O-])c1 (centres undefined) [Tramadol-N-oxide],99.4,91.3,90.2,95,104,102,12.7
O=c1c(-c2ccc(O)cc2)coc2cc([O-])cc(O)c12 [Genistein],99.2,103,99.5,93.3,93,89.9,17.9
CCOP(=O)(OCC)Oc1cc(C)nc(C(C)C)n1 [Diazoxon],,,,,85.6,95.3,18.8
O=C([O-])C[NH+](CCC[NH+](CC(=O)[O-])CC(=O)[O-])CC(=O)[O-] [1-3-Propylene-diaminotetraacetic-acid],,,,,85.1,117,3.58
COc1cc(Cc2c[nH+]c(N)nc2N)cc(OC)c1OC [Trimethoprim],,,,,107,106,10.5
O=C(CCC[NH+]1CCC(O)(c2ccc(Cl)cc2)CC1)c1ccc(F)cc1 [Haloperidol],,,,,114,118,15
CCC(=O)C(CC(C)[NH+](C)C)(c1ccccc1)c1ccccc1 (centres undefined) [Methadon],,,,,105,100,15.9

# Now from value to compound:
absolute recovery ([1]; nanopure water) [%],absolute recovery ([1]; surface water) [%],absolute recovery ([1]; wastewater effluent) [%],absolute recovery ([1]; wastewater influent) [%],absolute recovery ([2]; wastewater effluent) [%],absolute recovery ([2]; wastewater influent) [%],LC retention time [3] [min],Compound
93.2,111,93.7,70.7,117,109,16.2,CC(COc1ccccc1Cc1ccccc1)[NH+]1CCCCC1 (centres undefined) [Benproperine]
94.7,98,91.7,96.1,99.5,104,17.2,Cc1ccc(NS(=O)(=O)N(C)C)cc1 [N-N-dimethyl-N-(4-methylphenyl)-sulfamide]
97.7,98.5,92.1,94.1,109,103,18.8,CN(C)C(=O)Nc1ccc(Cl)c(Cl)c1 [Diuron]
94.5,93.4,88.3,89,105,94.2,11.6,C[N+](C)([O-])CCC(c1ccccc1)c1ccccn1 (centres undefined) [Pheniramine-N-oxide]
57.9,118,91.3,64.3,113,112,22,O=C(Nc1ccc(Cl)cc1)Nc1ccc(Cl)c(Cl)c1 [Triclocarban]
97,99.3,91.4,101,105,101,15.7,CC(C)(C(=O)[O-])c1ccc(C(O)CCC[NH+]2CCC(C(O)(c3ccccc3)c3ccccc3)CC2)cc1 (centres undefined) [Fexofenadin]
96.8,88,92.8,87.9,109,107,18.2,COCCN(C(=O)C(=O)[O-])c1c(C)cccc1C [Dimethachlor-OXA]
98.5,86,82.7,99,106,102,20.8,CC(C)(Oc1ccc(C(=O)c2ccc(Cl)cc2)cc1)C(=O)[O-] [Fenofibric-acid]
100,96.8,93.7,86.3,105,100,14.4,CC(C)[NH2+]CC(O)COc1cccc2ccccc12 (centres undefined) [Propranolol]
75.9,24.7,44.2,60.1,105,105,12.5,CCC(CC)OC1C=C(C(=O)[O-])CC([NH3+])C1NC(C)=O (centres undefined) [Oseltamivir-carboxylat]
89,95.6,91.9,144,90.5,94.2,15.1,COc1ccc(C2Sc3ccccc3N(CC[NH+](C)C)C(=O)C2OC(C)=O)cc1 (centres undefined) [Diltiazem]
102,86.5,83.1,91.2,89.6,,18.1,CCc1cccc(C)c1N1C(=O)COCC1C (centres undefined) [Metolachlor-Morpholinon]
89.5,84.5,86.9,81.5,101,100,14,C[NH2+]CCCC(C#N)(c1ccc(OC)c(OC)c1)C(C)C (centres undefined) [D617]
79.8,90.2,85.5,82.8,91.1,91.9,16.2,C[NH2+]CCC(Oc1ccc(C(F)(F)F)cc1)c1ccccc1 (centres undefined) [Fluoxetin]
93.2,96.3,96,99.6,99.1,97,13.2,COc1cc2[nH+]c(N(C)CCCNC(=O)C3CCCO3)nc(N)c2cc1OC (centres undefined) [Alfuzosin]
85.2,92.4,86.9,87.6,106,99.5,21,CC(C)c1nc(CN(C)C(=O)NC(C(=O)NC(Cc2ccccc2)CC(O)C(Cc2ccccc2)NC(=O)OCc2cncs2)C(C)C)cs1 (centres undefined) [Ritonavir]
96.2,92.9,90,90.1,108,91.4,18.3,CC(C)c1nc(N(C)S(C)(=O)=O)nc(-c2ccc(F)cc2)c1C=CC(O)CC(O)CC(=O)[O-] (centres undefined) [Rosuvastatin]
82.5,83,81.8,87.2,109,106,11.7,CCC[NH2+]C(C)C(=O)Nc1ccccc1C (centres undefined) [Prilocain]
,,,,102,98,14.4,C[NH+]1CCN(C2=Nc3cc(Cl)ccc3Nc3ccccc32)CC1 [Clozapin]
,,,,105,106,14.5,O=C(NCC1CCCC[NH2+]1)c1cc(OCC(F)(F)F)ccc1OCC(F)(F)F (centres undefined) [Flecainid]
,,,,102,99.8,8.59,CC(C)(C)[NH2+]CC(O)c1ccc(O)c(CO)c1 (centres undefined) [Albuterol]
,,,,105,72.3,20.8,CC(C)n1c(C=CC(O)CC(O)CC(=O)[O-])c(-c2ccc(F)cc2)c2ccccc21 (centres undefined) [Fluvastatin]
,,,,86.8,100,17.1,Cc1c(OCC(F)(F)F)ccnc1CS(=O)c1nc2ccccc2[nH]1 (centres undefined) [Lansoprazole]
,,,,101,99.7,18,CC(C)CN(CC(O)C(Cc1ccccc1)NC(=O)OC1COC2OCCC12)S(=O)(=O)c1ccc(N)cc1 (centres undefined) [Darunavir]
,,,,65.2,,20.2,CC1=C(C(=O)[O-])N2C(=O)C(NC(=O)C([NH3+])c3ccccc3)C2SC1 (centres undefined) [Cefalexin]
